Assay results taken from patent US12180207B2 (ARRAY BIOPHARMA INC., priority 2018, dated 2024).

What was measured:
[1] = biological target: dephosphorylated FGFR1 (SEQ ID NO: 1, amino acids 458 to 765) (Homo sapiens (Human), UniProt P11362); test: FGFR enzyme binding assay (HTRF tracer displacement), FGFR1; details: 5 nM dephosphorylated FGFR1, average of multiple determinations if made
Procedure, shortened: (§1)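 Kinase and tracer were incubated with compound for 60 minutes at 22° C. Tracer displacement was then measured by HTRF, and results were expressed as POC with 1 μM control inhibitor defining full displacement.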

[2] = biological target: phosphorylated FGFR3 (SEQ ID NO: 5, amino acids 449 to 759) (Homo sapiens (Human), UniProt P22607); test: FGFR enzyme binding assay (HTRF tracer displacement), FGFR3; details: 5 nM phosphorylated FGFR3, average of multiple determinations if made
Procedure, shortened: as §1

[3] = biological target: recombinant human FGFR1 catalytic domain (amino acids 308-731) (Homo sapiens (Human), UniProt P11362); test: FGFR1 enzyme activity assay (LanthaScreen TR-FRET); assay type: biochemical; details: 20 min incubation at 22° C., average of multiple determinations if made, read-out: FGFR1 Enz FRET IC50
Procedure, shortened: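 His-tagged FGFR1 kinase domain with 100 nM Alexa Fluor 647-poly-GT peptide and ATP in pH 7.5 HEPES/MgCl2 buffer with 2% DMSO, 20 min at 22 °C. Quenched with EDTA plus 2 nM Eu-PY20 antibody and read after 60 min. IC50 comes from a 4-parameter fit of percent of control.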

[4] = biological target: recombinant human FGFR3 (amino acids R397-T806) (Homo sapiens (Human), UniProt P22607); test: FGFR3 enzyme activity assay (LanthaScreen TR-FRET); assay type: biochemical; details: 25 μM ATP, 10 min incubation at 22° C., average of multiple determinations if made, read-out: FGFR3 Enz FRET IC50
Procedure, shortened: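 GST-HIS6-tagged human FGFR3 (R397-T806) was reacted with 100 nM Alexa Fluor 647-Poly-GT substrate and 25 μM ATP plus compound in HEPES/MgCl2/Triton buffer, pH 7.5, 2% DMSO, for 10 min at 22 °C.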

[5] = biological target: FGFR1 (SEQ ID NO: 1, amino acids 458-765) (Homo sapiens (Human), UniProt P11362); test: LC/MS FGFR1 kobs assay (covalent protein modification); assay type: binding; details: 500 nM FGFR1, 3 μM compound
Procedure, shortened: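 Covalent labeling of FGFR1 kinase domain (aa 458-765) tracked over time by intact-protein LC/MS after formic acid quench. kobs derived by fitting DMSO-normalized percent unmodified FGFR1 to an exponential decay model.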

[6] = biological target: T1, HEK-293 cells transfected with dox-inducible human wild type FGFR3 (Homo sapiens (Human), UniProt P22607); test: FGFR3 pFGFR cell assay (ELISA); assay type: cell-based; details: HEK-293 dox-inducible FGFR3, 1 hour compound, 100 ng/ml FGF-acidic
Procedure: FGFR3 pFGFR Cell Assay: • HEK-293 cells transfected with dox-inducible human wild type FGFR3 (SEQ ID NO: 5) were plated in a collagen or poly-D-lysine coated 96 well flat bottom plates at 4×10^5 cells/well in complete DMEM medium containing 10% FBS and 1 μg/ml doxycycline and allowed to attach for 24 h at 37° C., 5% CO2. Cells were treated with compound using 1:3 serial dilutions with a top final concentration of 5 μM. Compound was incubated on cells for 1 hour at 37° C., 5% CO2. Cells were then stimulated with a final concentration of 100 ng/ml human FGF-acidic for 5 minutes at 37° C., 5% CO2. Medium was removed and cells were lysed with lysis buffer containing phosphatase and protease inhibitors. Phospho FGFR3 was measured by ELISA (R&D Systems cat DYC2719). The ELISA captures total FGFR3 and detects total phospho tyrosine. Optical density was measured for each well using a Versamax reader at a wavelength of 450 nm. 100 POC was determined using no test compounds and 0 POC was determined using a control compound. The POC values were fit to a 4-parameter logistic curve as a function of the concentration of the compound, and the IC50 value is the point where the curve crosses 50 POC.

[7] = biological target: recombinant human FGFR2 cytoplasmic domain (amino acids 403-822) (Homo sapiens (Human), UniProt P21802); test: FGFR2 enzyme activity assay (LanthaScreen TR-FRET); assay type: biochemical; details: 15 μM ATP, 20 min incubation at 22° C., average of multiple determinations if made, read-out: FGFR2 Enz FRET IC50
Procedure, shortened: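 Substrate phosphorylation was read by TR-FRET using Eu-PY20 antibody (60 min, 22 °C) after a 20 min, 22 °C reaction. The reaction used 15 μM ATP, 100 nM fluorescent poly-GT peptide and His-tagged FGFR2 403-822 ([…]) at pH 7.5 with 2% DMSO.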

[8] = biological target: FGFR3 (SEQ ID NO: 5, amino acids 449-759) (Homo sapiens (Human), UniProt P22607); test: LC/MS FGFR3 kobs assay (covalent protein modification); assay type: binding; details: 500 nM FGFR3, 3 μM compound
Procedure, shortened: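 kobs is the rate constant from an exponential-decay fit of percent unmodified kinase, normalized to DMSO controls, averaged over multiple determinations where available. Time-course samples of FGFR1 (458-765) and FGFR3 (449-759) with compound were acid-quenched (0.4% formic acid) and protein adducts quantified by intact-mass LC/MS.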

[9] = biological target: HEK-293 cells transfected with dox-inducible human wild type FGFR2 (Homo sapiens (Human), UniProt P21802); test: FGFR2 pFGFR cell assay (ELISA); assay type: cell-based; details: HEK-293 dox-inducible FGFR2, 1 hour compound, 30 ng/ml FGF-acidic
Procedure: FGFR2 pFGFR Cell Assay: • HEK-293 cells transfected with dox-inducible human wild type FGFR2 (SEQ ID NO: 3) were plated in a collagen or poly-D-lysine coated 96 well flat bottom plates at 4×10^5 cells/well in complete DMEM medium containing 10% FBS and 1 μg/ml doxycycline and allowed to attach for 24 h at 37° C., 5% CO2. Cells were treated with compound using 1:3 serial dilutions with a maximum final concentration of 5 μM. Compound was incubated on cells for 1 hour at 37° C., 5% CO2. Cells were then stimulated with a final concentration of 30 ng/ml human FGF-acidic (R&D Systems Cat number 232-FA/CF) for 5 minutes at 37° C., 5% CO2. Medium was removed and cells were lysed with lysis buffer containing phosphatase and protease inhibitors. Phospho FGFR2 was measured by ELISA (R&D Systems cat. no. DYC684). The ELISA captures total FGFR2 and detects total phospho tyrosine. Optical density was measured for each well using a Versamax reader at a wavelength of 450 nm. 100 POC was determined using no test compounds and 0 POC was determined using a control compound. The POC values were fit to a 4-parameter logistic curve as a function of the concentration of the compound, and the IC50 value is the point where the curve crosses 50 POC.

[10] = biological target: HEK-293 cells transfected with dox-inducible human wild type FGFR1 (Homo sapiens (Human), UniProt P11362); test: FGFR1 pERK cell assay; assay type: cell-based; details: HEK-293 dox-inducible FGFR1, 1 hour compound, 100 ng/ml FGF-acidic; maximum concentration 5 μM
Procedure: (§2) FGFR1 pERK Cell Assay: • HEK-293 cells transfected with doxycycline(dox)-inducible human wild type FGFR1 (SEQ ID NO: 1) were plated in a collagen or poly-D-lysine coated 96 well flat bottom plates at 4×10^5 cells/well in complete Dulbecco's Modified Eagle Medium (DMEM) containing 10% FBS and 1 μg/ml doxycycline and allowed to attach for 24 h at 37° C., 5% CO2. Cells were treated with compound using 1:3 serial dilutions with a maximum final concentration of 5 μM. Compound was incubated on cells for 1 hour at 37° C., 5% CO2. Cells were then stimulated with a final concentration of 100 ng/ml human FGF-acidic (R&D Systems Cat number 232-FA/CF) for 5 minutes at 37° C., 5% CO2. Medium was removed, and cells were lysed with lysis buffer containing phosphatase and protease inhibitors. Phospho ERK1/2 was measured using the Meso Scale Discovery sandwich assay (Meso Scale Discovery cat. no. K151DWD). The assay captures phospho ERK1/2 and detects with a sulfo-tagged total ERK1/2 antibody. The chemiluminescent signal was read on the Sector Imager Plate reader. 100 POC was determined using no test compound and 0 POC was determined using a control compound. The POC values were fit to a 4-parameter logistic curve as a function of the concentration of the compound, and the IC50 value is the point where the curve crosses 50 POC.

[11] = biological target: T1, HEK-293 cells transfected with dox-inducible human wild type FGFR3; test: FGFR3 pERK cell assay; assay type: cell-based; details: HEK-293 dox-inducible FGFR3, 1 hour compound, 100 ng/ml FGF-acidic; maximum concentration 5 μM
Procedure: as §2, with “FGFR3 pERK” for “FGFR1 pERK”, “with dox-inducible” for “with doxycycline(dox)-inducible”, “type FGFR3” for “type FGFR1”, “NO: 5)” for “NO: 1)”, “complete DMEM medium” for “complete Dulbecco's Modified Eagle Medium (DMEM)”, “test compounds” for “test compound”

Chain of recombinant human FGFR2 cytoplasmic domain (amino acids 403-822) (P21802 402-821): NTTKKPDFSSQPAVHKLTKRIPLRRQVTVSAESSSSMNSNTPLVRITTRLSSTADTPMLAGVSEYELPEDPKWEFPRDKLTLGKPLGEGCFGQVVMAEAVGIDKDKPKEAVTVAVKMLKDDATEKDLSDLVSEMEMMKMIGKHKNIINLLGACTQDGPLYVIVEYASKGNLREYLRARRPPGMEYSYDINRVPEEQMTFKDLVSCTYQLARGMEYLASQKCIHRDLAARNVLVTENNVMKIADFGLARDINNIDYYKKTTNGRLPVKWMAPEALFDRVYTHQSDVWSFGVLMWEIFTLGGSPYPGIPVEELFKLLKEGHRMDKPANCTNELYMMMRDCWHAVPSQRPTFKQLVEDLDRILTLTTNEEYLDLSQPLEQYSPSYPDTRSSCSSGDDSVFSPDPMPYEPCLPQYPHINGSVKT
Chain of recombinant human FGFR1 catalytic domain (amino acids 308-731) (P11362 other isoform, or with tags, fused parts or gaps): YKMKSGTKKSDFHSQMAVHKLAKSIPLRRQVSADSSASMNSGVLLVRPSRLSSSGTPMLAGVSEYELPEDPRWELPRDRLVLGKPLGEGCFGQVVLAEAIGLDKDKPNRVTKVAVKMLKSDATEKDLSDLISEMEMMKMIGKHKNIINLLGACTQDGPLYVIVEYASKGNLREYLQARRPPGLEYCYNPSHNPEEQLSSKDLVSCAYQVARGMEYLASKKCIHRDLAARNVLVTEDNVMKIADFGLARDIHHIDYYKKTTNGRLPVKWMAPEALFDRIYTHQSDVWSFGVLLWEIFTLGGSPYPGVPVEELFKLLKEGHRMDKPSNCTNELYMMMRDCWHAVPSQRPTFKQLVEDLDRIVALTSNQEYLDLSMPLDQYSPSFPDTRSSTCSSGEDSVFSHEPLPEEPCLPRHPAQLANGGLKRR
Chain of recombinant human FGFR3 (amino acids R397-T806) (P22607 397-806): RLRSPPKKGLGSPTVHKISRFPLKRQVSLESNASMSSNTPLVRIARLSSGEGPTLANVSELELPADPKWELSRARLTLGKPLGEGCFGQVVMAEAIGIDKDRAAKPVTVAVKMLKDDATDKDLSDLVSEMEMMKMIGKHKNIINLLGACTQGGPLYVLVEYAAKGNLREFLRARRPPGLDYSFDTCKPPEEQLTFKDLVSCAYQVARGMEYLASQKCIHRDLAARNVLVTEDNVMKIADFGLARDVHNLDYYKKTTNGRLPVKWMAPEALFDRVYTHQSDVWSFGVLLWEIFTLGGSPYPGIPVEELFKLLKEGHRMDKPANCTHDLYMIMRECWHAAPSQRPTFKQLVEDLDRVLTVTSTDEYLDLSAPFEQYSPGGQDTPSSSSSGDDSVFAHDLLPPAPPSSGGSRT
Chain of dephosphorylated FGFR1 (SEQ ID NO: 1, amino acids 458 to 765) (P11362 458-765): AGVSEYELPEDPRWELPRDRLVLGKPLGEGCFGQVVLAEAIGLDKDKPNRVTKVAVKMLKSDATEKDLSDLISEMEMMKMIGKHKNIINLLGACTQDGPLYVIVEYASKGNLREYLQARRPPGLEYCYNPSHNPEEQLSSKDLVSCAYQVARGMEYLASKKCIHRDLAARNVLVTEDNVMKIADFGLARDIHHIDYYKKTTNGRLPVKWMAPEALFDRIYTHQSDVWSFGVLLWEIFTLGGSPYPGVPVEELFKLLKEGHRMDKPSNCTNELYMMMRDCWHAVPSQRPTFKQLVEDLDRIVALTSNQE
T1 sequence (P22607 23-806): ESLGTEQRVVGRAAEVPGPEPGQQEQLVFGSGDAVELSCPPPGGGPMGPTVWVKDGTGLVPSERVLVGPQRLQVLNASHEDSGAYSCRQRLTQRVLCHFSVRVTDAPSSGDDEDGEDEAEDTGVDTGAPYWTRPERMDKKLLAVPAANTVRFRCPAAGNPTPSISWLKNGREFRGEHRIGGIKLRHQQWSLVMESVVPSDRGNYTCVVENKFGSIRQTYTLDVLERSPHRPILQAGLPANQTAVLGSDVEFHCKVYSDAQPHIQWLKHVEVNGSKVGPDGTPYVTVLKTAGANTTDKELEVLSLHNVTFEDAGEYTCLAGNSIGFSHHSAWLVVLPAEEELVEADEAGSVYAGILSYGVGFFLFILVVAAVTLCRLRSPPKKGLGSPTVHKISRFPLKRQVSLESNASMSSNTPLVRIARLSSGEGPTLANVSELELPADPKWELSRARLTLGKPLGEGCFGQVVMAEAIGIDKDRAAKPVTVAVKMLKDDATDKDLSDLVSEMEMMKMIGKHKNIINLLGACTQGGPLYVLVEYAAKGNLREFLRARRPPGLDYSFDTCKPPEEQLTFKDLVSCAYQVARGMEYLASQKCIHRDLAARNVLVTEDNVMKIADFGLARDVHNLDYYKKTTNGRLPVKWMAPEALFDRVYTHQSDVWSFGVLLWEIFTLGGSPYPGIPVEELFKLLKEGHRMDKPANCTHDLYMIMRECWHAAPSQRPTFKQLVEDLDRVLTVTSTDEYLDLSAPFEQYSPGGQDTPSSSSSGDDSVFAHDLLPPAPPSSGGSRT
Chain of phosphorylated FGFR3 (SEQ ID NO: 5, amino acids 449 to 759) (P22607 449-759): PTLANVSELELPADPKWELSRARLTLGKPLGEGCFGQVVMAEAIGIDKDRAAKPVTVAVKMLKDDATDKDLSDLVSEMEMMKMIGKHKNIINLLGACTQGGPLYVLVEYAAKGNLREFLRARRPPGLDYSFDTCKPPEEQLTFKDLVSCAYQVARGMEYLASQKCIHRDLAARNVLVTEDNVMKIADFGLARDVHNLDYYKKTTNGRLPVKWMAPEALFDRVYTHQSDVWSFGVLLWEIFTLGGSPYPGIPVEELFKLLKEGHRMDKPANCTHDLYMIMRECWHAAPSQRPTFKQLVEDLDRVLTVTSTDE
Chain of FGFR3 (SEQ ID NO: 5, amino acids 449-759) (P22607 449-759): as above
Chain of HEK-293 cells transfected with dox-inducible human wild type FGFR2 (P21802 22-821): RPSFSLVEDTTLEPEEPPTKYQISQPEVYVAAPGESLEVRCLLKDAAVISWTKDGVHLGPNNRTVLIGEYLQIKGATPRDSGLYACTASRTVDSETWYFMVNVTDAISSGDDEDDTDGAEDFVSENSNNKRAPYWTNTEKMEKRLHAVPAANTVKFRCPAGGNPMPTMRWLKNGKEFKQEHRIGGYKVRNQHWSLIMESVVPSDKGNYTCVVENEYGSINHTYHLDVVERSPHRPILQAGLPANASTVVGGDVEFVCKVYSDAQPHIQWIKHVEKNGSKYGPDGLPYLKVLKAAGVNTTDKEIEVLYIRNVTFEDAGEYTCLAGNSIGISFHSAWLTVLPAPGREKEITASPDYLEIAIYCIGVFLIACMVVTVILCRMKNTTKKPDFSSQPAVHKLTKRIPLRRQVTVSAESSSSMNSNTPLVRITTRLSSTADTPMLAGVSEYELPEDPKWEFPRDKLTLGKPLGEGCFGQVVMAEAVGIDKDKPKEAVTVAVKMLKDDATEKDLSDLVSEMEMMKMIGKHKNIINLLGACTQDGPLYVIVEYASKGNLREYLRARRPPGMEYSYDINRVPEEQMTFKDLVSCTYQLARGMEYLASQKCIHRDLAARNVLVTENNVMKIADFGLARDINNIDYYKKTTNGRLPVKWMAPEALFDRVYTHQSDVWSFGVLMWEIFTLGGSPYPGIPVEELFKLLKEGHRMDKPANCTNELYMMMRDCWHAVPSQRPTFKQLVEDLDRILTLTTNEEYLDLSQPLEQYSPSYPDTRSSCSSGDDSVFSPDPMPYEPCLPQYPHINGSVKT
Chain of FGFR1 (SEQ ID NO: 1, amino acids 458-765) (P11362 458-765): as the sequence (P11362 458-765) above
Chain of HEK-293 cells transfected with dox-inducible human wild type FGFR1 (P11362 22-822): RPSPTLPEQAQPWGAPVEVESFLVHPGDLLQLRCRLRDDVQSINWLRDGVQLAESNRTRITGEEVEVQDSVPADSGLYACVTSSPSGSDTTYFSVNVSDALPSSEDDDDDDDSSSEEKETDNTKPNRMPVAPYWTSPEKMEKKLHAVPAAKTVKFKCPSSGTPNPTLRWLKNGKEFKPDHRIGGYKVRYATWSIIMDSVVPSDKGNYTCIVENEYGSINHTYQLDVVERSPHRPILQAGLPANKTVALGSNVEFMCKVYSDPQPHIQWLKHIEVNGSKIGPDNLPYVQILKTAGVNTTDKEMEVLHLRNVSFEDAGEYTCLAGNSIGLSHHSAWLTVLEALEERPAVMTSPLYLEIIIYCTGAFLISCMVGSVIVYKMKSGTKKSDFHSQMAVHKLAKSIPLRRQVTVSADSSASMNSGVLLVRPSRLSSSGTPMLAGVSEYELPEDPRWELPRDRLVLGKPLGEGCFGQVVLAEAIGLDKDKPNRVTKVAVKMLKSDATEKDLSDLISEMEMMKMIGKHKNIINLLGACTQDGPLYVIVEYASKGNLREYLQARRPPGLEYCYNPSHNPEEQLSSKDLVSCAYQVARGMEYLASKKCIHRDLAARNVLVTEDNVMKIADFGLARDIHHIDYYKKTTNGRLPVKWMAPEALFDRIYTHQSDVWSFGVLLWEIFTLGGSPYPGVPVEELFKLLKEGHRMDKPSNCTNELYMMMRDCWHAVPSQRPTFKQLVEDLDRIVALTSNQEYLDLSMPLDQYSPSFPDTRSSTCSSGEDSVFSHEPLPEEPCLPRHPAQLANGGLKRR

Row | IC50 [1] [nM] | IC50 [2] [nM] | IC50 [3] [nM] | IC50 [4] [nM] | FGFR1 Enz kobs [5] [min⁻¹] | IC50 [6] [nM] | IC50 [7] [nM] | FGFR3 Enz kobs [8] [min⁻¹] | IC50 [9] [nM] | IC50 [10] [nM] | IC50 [11] [nM] | Structure (SMILES)
1 | 136 | 15 | 1200 | 1160 | 0.0497 | 18 |  |  |  |  |  | COc1cc(-c2cnn(C3CCN(C(=O)C4CN(C(=O)C#CCN(C)C)C4)CC3)c2)cn2ncc(C#N)c12 [Example 176, 6-(1-(1-(1-(4-(dimethylamino)but-2-ynoyl)azetidine-3-carbonyl)piperidin-4-yl)-1H-pyrazol-4-yl)-4-methoxypyrazolo[1,5-a]pyridine-3-carbonitrile]
2 |  | 32 |  | 3 |  | 242 | 3 | 0.00231 |  |  |  | C=CC(=O)N1CCC(C(=O)N2CCC(n3cc(-c4cc(OC)c5c(C#N)cnn5c4)cn3)CC2)CC1 [Example 12, 6-(1-(1-(1-acryloylpiperidine-4-carbonyl)piperidin-4-yl)-1H-pyrazol-4-yl)-4-methoxypyrazolo[1,5-a]pyridine-3-carbonitrile]
3 |  | 4 |  | 3 |  | 12 | 5 | 0.06081 |  |  |  | C=CS(=O)(=O)N1CC[C@@H](C(=O)N2CCC(n3cc(-c4cc(OC)c5c(C#N)cnn5c4)cn3)CC2)C1 [Example 185]
4 |  |  |  |  |  |  |  |  | 34 |  |  | COc1cc(-c2cnn(C3CCN(C(=O)/C=C/CN(C)C)CC3)c2)cn2ncc(C#N)c12 [Example 144, (E)-6-(1-(1-(4-(dimethylamino)benoyl)piperidin-4-yl)-1H-pyrazol-4-yl)-4-methoxypyrazol14 5o[1,5-a]pyridine-3-carbonitrile]
5 | 50 | 4 | 19 | 5 |  | 14 | 7 | 0.02572 |  |  |  | C=CS(=O)(=O)N1CCC2(CC1)CC(C(=O)N1CCC(n3cc(-c4cc(OC)c5c(C#N)cnn5c4)cn3)CC1)C2 [Example 195, 4-methoxy-6-(1-(1-(7-(vinylsulfonyl)-7-azaspiro[3.5]nonane-2-carbonyl)piperidin-4-yl)-1H-pyrazol-4-yl)pyrazolo[1,5-a]pyridine-3-carbonitrile]
6 |  |  |  |  |  |  |  |  | 424 | 769 | 119 | COc1cc(-c2cnn(C3CCN(C(=O)C4CN(C(=O)/C=C/CF)C4)CC3)c2)cn2ncc(C#N)c12 [Example 142]
7 | 70 | 12 | 14 | 3 |  | 12 | 9 | 0.1008 |  |  |  | C=CS(=O)(=O)N1CC(C(=O)N2CCC(n3cc(-c4cc(OC)c5c(C#N)cnn5c4)cn3)CC2)C1 [Example 192, 4-methoxy-6-(1-(1-(1-(vinylsulfonyl)azetidine-3-carbonyl)piperidin-4-yl)-1H-pyrazol-4-yl)pyrazolo[1,5-a]pyridine-3-carbonitrile]

Row | Structure (SMILES) | IC50 [1] [nM] | IC50 [2] [nM] | IC50 [3] [nM] | IC50 [4] [nM] | FGFR1 Enz kobs [5] [min⁻¹] | IC50 [6] [nM] | IC50 [7] [nM] | FGFR3 Enz kobs [8] [min⁻¹] | IC50 [9] [nM] | IC50 [10] [nM] | IC50 [11] [nM]
8 | C=CS(=O)(=O)N1CC[C@H](C(=O)N2CCC(n3cc(-c4cc(OC)c5c(C#N)cnn5c4)cn3)CC2)C1 [Example 189, (S)-4-methoxy-6-(1-(1-(1-(vinylsulfonyl)pyrrol-idine-3-carbonyl)piperidin-4-yl)-1H-pyrazol-4-yl)pyrazolo[1,5-a]pyridine-3-carbonitrile] |  | 3 |  | 4 |  | 9 | 3 | 0.0728 |  |  | 
